Measured values taken from patent publication US20250235460A1, “COMBINATION THERAPY USING GLUCOSE-DEPENDENT INSULINOTROPIC POLYPEPTIDE RECEPTOR ANTAGONIST COMPOUNDS AND GLP-1 RECEPTOR AGONIST COMPOUNDS” (Pfizer Inc., priority 2024, published 2025).
Like-named read-outs stand apart in the source and are kept apart here.

Target: human GLP-1R (Homo sapiens, UniProt P43220, G168S)
Assay: CHO GLP-1R Clone H6 cAMP HTRF agonist assay (Assay 1, high receptor density)
Type: cell-based
Details: for EC50: CHO GLP-1R clone H6, cAMP HTRF, geometric mean; for Emax: arithmetic mean
Source text: In Table 5 and Table 6, assay data are presented to two (2) significant figures as the geometric mean (EC50s) and arithmetic mean (Emax) based on the number of replicates listed (Number). A blank cell means there was no data for that Example or the Emax was not calculated.

[1] = CHO GLP-1R clone H6, relative to saturating GLP-1 (1 μM), read-out: Assay 1 Emax (%)

Sequence of human GLP-1R (P43220 24-463 G168S): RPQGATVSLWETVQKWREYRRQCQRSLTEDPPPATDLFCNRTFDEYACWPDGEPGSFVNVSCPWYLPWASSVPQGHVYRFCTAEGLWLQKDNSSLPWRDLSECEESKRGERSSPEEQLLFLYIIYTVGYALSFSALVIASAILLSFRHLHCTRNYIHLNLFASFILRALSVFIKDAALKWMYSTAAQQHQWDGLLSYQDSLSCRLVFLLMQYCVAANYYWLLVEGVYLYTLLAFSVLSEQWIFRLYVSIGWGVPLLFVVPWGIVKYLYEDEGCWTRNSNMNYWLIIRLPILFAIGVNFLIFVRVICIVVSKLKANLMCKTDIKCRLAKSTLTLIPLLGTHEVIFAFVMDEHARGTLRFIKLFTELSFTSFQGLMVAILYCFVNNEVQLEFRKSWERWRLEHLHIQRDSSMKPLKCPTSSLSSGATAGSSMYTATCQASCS

SMILES	EC50	Emax [1]	Emax (relative to saturating full agonist GLP-1 (1 μM), read-out: Assay 1 Emax)
COCCn1c(CN2CCN(c3cccc(OCc4ccc(C#N)cc4F)n3)C[C@@H]2C)nc2ccc(C(=O)O)cc21 [Compound 173B, 2-{[(2S)-4-{6-[(4-cyano-2-fluorobenzyl)oxy]pyridin-2-yl}-2-methylpiperazin-1-yl]methyl}-1-(2-methoxyethyl)-1H-benzimidazole-6-carboxylic acid]	2700 nM	85%	–
CCn1cncc1Cn1c(CN2CCC(c3cccc(OCc4ccc(C#N)cc4F)n3)CC2)nc2ccc(C(=O)O)nc21 [Compound 273B, 2-[(4-{6-[(4-cyano-2-fluorobenzyl)oxy]pyridin-2-yl}piperidin-1-yl)methyl]-3-[(1-ethyl-1H-imidazol-5-yl)methyl]-3H-imidazo[4,5-b]pyridine-5-carboxylic acid]	> 20000 nM	–	–
O=C(O)c1cnc2nc(CN3CCC(c4cccc(OCc5ccc(Cl)cc5F)n4)CC3)n(CC(F)(F)F)c2c1 [Compound 212B, 2-[(4-{6-[(4-chloro-2-fluorobenzyl)oxy]pyridin-2-yl}piperidin-1-yl)methyl]-1-(2,2,2-trifluoroethyl)-1H-imidazo[4,5-b]pyridine-6-carboxylic acid]	190 nM	71%	–
Cn1c(CN2CCC(c3cccc(OCc4c(F)cccc4F)n3)CC2)nc2ccc(C(=O)O)cc21 [Compound 224B, 2-[(4-{6-[(2,6-difluorobenzyl)oxy]pyridin-2-yl}piperidin-1-yl)methyl]-1-methyl-1H-benzimidazole-6-carboxylic acid]	1200 nM	53%	–
COCCn1c(CN2CCN(c3cccc(OCc4ccc(Cl)cc4F)n3)C[C@@H]2C2CC2)nc2ccc(C(=O)O)cc21 [Compound 350B, 2-{[(2S)-4-{6-[(4-chloro-2-fluorobenzyl)oxy]pyridin-2-yl}-2-cyclopropylpiperazin-1-yl]methyl}-1-(2-methoxyethyl)-1H-benzimidazole-6-carboxylic acid]	420 nM	81%	–
COCCn1c(CN2CCC(c3cccc(OCc4ccc(Cl)cc4F)n3)CC2)nc2ccc(C(=O)O)nc21 [Compound 213B, 2-[(4-{6-[(4-chloro-2-fluorobenzyl)oxy]pyridin-2-yl}piperidin-1-yl)methyl]-3-(2-methoxyethyl)-3H-imidazo[4,5-b]pyridine-5-carboxylic acid]	390 nM	82%	–
Cc1ccccc1COc1cccc(C2CCN(Cc3nc4ccc(C(=O)O)cc4n3C)CC2)n1 [Compound 230B, 1-methyl-2-[(4-{6-[(2-methylbenzyl)oxy]pyridin-2-yl}piperidin-1-yl)methyl]-1H-benzimidazole-6-carboxylic acid]	1700 nM	80%	–
Cn1c(CN2CCC(c3cccc(OCc4ccc(C(F)(F)F)cc4F)n3)CC2)nc2ccc(C(=O)O)cc21 [Compound 222B, 2-{[4-(6-{[2-fluoro-4-(trifluoromethyl)benzyl]oxy}pyridin-2-yl)piperidin-1-yl]methyl}-1-methyl-1H-benzimidazole-6-carboxylic acid]	130 nM	72%	–
CCn1cncc1Cn1c(CN2CCN(c3cccc(OCc4ccc(C#N)cc4F)n3)C[C@@H]2C)nc2ccc(C(=O)O)cc21 [Compound 269B, 2-{[(2S)-4-{6-[(4-cyano-2-fluorobenzyl)oxy]pyridin-2-yl}-2-methylpiperazin-1-yl]methyl}-1-[(1-ethyl-1H-imidazol-5-yl)methyl]-1H-benzimidazole-6-carboxylic acid]	> 20000 nM	–	–
COCCn1c(CN2CCC(c3cccc4c3OC(C)(c3ccc(C#N)cn3)O4)CC2)nc2ccc(C(=O)O)cc21 (stereo not drawn) [Compound 98B, ammonium 2-({4-[2-(5-cyanopyridin-2-yl)-2-methyl-1,3-benzodioxol-4-yl]piperidin-1-yl}methyl)-1-(2-methoxyethyl)-1H-benzimidazole-6-carboxylate, ENT-X2]	–	–	89%

Now from value to molecule:

EC50	Emax [1]	Emax (relative to saturating full agonist GLP-1 (1 μM), read-out: Assay 1 Emax)	SMILES
2500 nM	71%	–	O=C(O)c1ccc2nc(CN3CCC(c4cccc(OCc5ccc(Cl)cc5F)n4)CC3)n(CC3CC(F)(F)C3)c2c1 [Compound 326B, 2-[(4-{6-[(4-chloro-2-fluorobenzyl)oxy]pyridin-2-yl}piperidin-1-yl)methyl]-1-[(3,3-difluorocyclobutyl)methyl]-1H-benzimidazole-6-carboxylic acid]
1300 nM	79%	–	CC(C)n1cnnc1Cn1c(CN2CCC(c3cccc(OCc4ccc(Cl)cc4F)n3)CC2)nc2ccc(C(=O)O)cc21 [Compound 236B, 2-[(4-{6-[(4-chloro-2-fluorobenzyl)oxy]pyridin-2-yl}piperidin-1-yl)methyl]-1-{[4-(propan-2-yl)-4H-1,2,4-triazol-3-yl]methyl}-1H-benzimidazole-6-carboxylic acid]
390 nM	69%	–	CCn1ccnc1Cn1c(CN2CCC(c3cccc(OCc4ccc(Cl)cc4F)n3)CC2)nc2ccc(C(=O)O)cc21 [Compound 314B, 2-[(4-{6-[(4-chloro-2-fluorobenzyl)oxy]pyridin-2-yl}piperidin-1-yl)methyl]-1-[(1-ethyl-1H-imidazol-2-yl)methyl]-1H-benzimidazole-6-carboxylic acid]
1400 nM	97%	–	Cc1cc(Cn2c(CN3CCC(c4cccc(OCc5ccc(Cl)cc5F)n4)CC3)nc3ccc(C(=O)O)cc32)on1 [Compound 322B, 2-[(4-{6-[(4-chloro-2-fluorobenzyl)oxy]pyridin-2-yl}piperidin-1-yl)methyl]-1-[(3-methyl-1,2-oxazol-5-yl)methyl]-1H-benzimidazole-6-carboxylic acid]
440 nM	86%	–	O=C(O)c1ccc2nc(CN3CCC(c4cccc(OCc5ccc(Cl)cc5F)n4)CC3)n(CC3CCCOC3)c2c1 (stereo not drawn) [Compound 315B, 2-[(4-{6-[(4-chloro-2-fluorobenzyl)oxy]pyridin-2-yl}piperidin-1-yl)methyl]-1-(tetrahydro-2H-pyran-3-ylmethyl)-1H-benzimidazole-6-carboxylic acid]
1100 nM	65%	–	COC[C@H](C)n1c(CN2CCC(c3cccc(OCc4ccc(Cl)cc4F)n3)CC2)nc2ccc(C(=O)O)cc21 [Compound 320B, 2-[(4-{6-[(4-chloro-2-fluorobenzyl)oxy]pyridin-2-yl}piperidin-1-yl)methyl]-1-[(2S)-1-methoxypropan-2-yl]-1H-benzimidazole-6-carboxylic acid]
> 20000 nM	–	–	CN1CCOC(Cn2c(CN3CCC(c4cccc(OCc5ccc(Cl)cc5F)n4)CC3)nc3ccc(C(=O)O)cc32)C1 (stereo not drawn) [Compound 338B, 2-[(4-{6-[(4-chloro-2-fluorobenzyl)oxy]pyridin-2-yl}piperidin-1-yl)methyl]-1-[(4-methylmorpholin-2-yl)methyl]-1H-benzimidazole-6-carboxylic acid]
210 nM	77%	–	Cn1cc(CCn2c(CN3CCC(c4cccc(OCc5ccc(Cl)cc5F)n4)CC3)nc3ccc(C(=O)O)cc32)cn1 [Compound 307B, 2-[(4-{6-[(4-chloro-2-fluorobenzyl)oxy]pyridin-2-yl}piperidin-1-yl)methyl]-1-[2-(1-methyl-1H-pyrazol-4-yl)ethyl]-1H-benzimidazole-6-carboxylic acid]
> 10000 nM	85%	–	CCc1noc(Cn2c(CN3CCC(c4cccc(OCc5ccc(Cl)cc5F)n4)CC3)nc3ccc(C(=O)O)cc32)n1 [Compound 264B, 2-[(4-{6-[(4-chloro-2-fluorobenzyl)oxy]pyridin-2-yl}piperidin-1-yl)methyl]-1-[(3-ethyl-1,2,4-oxadiazol-5-yl)methyl]-1H-benzimidazole-6-carboxylic acid]
2900 nM	88%	–	CC(c1nncn1C)n1c(CN2CCC(c3cccc(OCc4ccc(Cl)cc4F)n3)CC2)nc2ccc(C(=O)O)cc21 (stereo not drawn) [Compound 327B, 2-[(4-{6-[(4-chloro-2-fluorobenzyl)oxy]pyridin-2-yl}piperidin-1-yl)methyl]-1-[1-(4-methyl-4H-1,2,4-triazol-3-yl)ethyl]-1H-benzimidazole-6-carboxylic acid]
75 nM	69%	–	CO[C@@H]1CCC[C@H]1n1c(CN2CCC(c3cccc(OCc4ccc(Cl)cc4F)n3)CC2)nc2ccc(C(=O)O)cc21 (stereo in doubt) [Compound 194B, 2-[(4-{6-[(4-chloro-2-fluorobenzyl)oxy]pyridin-2-yl}piperidin-1-yl)methyl]-1-[(1R,2R)-2-methoxycyclopentyl]-1H-benzimidazole-6-carboxylic acid]
320 nM	79%	–	Cc1cc(Cn2c(CN3CCC(c4cccc(OCc5ccc(Cl)cc5F)n4)CC3)nc3ccc(C(=O)O)cc32)no1 [Compound 310B, 2-[(4-{6-[(4-chloro-2-fluorobenzyl)oxy]pyridin-2-yl}piperidin-1-yl)methyl]-1-[(5-methyl-1,2-oxazol-3-yl)methyl]-1H-benzimidazole-6-carboxylic acid]
250 nM	64%	–	Cc1n[nH]c(CCn2c(CN3CCC(c4cccc(OCc5ccc(Cl)cc5F)n4)CC3)nc3ccc(C(=O)O)cc32)n1 [Compound 341B, 2-[(4-{6-[(4-chloro-2-fluorobenzyl)oxy]pyridin-2-yl}piperidin-1-yl)methyl]-1-[2-(3-methyl-1H-1,2,4-triazol-5-yl)ethyl]-1H-benzimidazole-6-carboxylic acid]
520 nM	–	–	Cn1cc(Cn2c(CN3CCC(c4cccc(OCc5ccc(Cl)cc5F)n4)CC3)nc3ccc(C(=O)O)cc32)cn1 [Compound 318B, 2-[(4-{6-[(4-chloro-2-fluorobenzyl)oxy]pyridin-2-yl}piperidin-1-yl)methyl]-1-[(1-methyl-1H-pyrazol-4-yl)methyl]-1H-benzimidazole-6-carboxylic acid]
130 nM	80%	–	CC(F)(F)Cn1c(CN2CCC(c3cccc(OCc4ccc(Cl)cc4F)n3)CC2)nc2ccc(C(=O)O)cc21 [Compound 302B, 2-[(4-{6-[(4-chloro-2-fluorobenzyl)oxy]pyridin-2-yl}piperidin-1-yl)methyl]-1-(2,2-difluoropropyl)-1H-benzimidazole-6-carboxylic acid]
